Source: patent US20070128217A1 (priority 2003, published 2007)

How the values were obtained:
[1] = test system: control sera (pooled serum of ten healthy LUMC hospital workers; commercial negative donor pooled serum from the Dutch bloodbank); type: binding, human; set-up: Binding of Control serum LUMC to linear peptides / Binding of Control serum Blood-bank to linear peptides / Binding of Control serum LUMC to looped peptides / Binding of Control Serum Blood-Bank to Looped peptides / Binding of Control serum LUMC to linear peptides of the protein M of SARS-CoV Urbani / Binding of Control serum Blood-bank to linear peptides of the protein M of SARS-CoV Urbani / Binding of Control serum LUMC to looped peptides of the protein M of SARS-CoV Urbani / Binding of Control Serum Blood-Bank to Looped peptides of the protein M of SARS-CoV Urbani: unit not given here
[2] = test system: rabbit serum obtained by immunizing a rabbit with the SARS-CoV strain Frankfurt 1; type: binding; set-up: Binding of a rabbit serum to linear peptides / Binding of a rabbit serum to looped peptides / Rabbit serum linear peptides / Rabbit serum looped peptides / Binding of a rabbit serum to linear peptides of protein N of SARS-CoV Urbani (Rabbit serum linear peptides) / Binding of a rabbit serum to looped/cyclic peptides of protein N of SARS-CoV Urbani (Rabbit serum looped peptides): unit not given here

Row | Sequence | Binding of Control Serum Blood-Bank to Looped peptides [1] | Binding of Control serum Blood-bank to linear peptides [1] | Binding of Control serum LUMC to linear peptides [1] | Binding of Control serum LUMC to looped peptides [1] | Binding of a rabbit serum to linear peptides [2] | Binding of a rabbit serum to looped peptides [2] | Rabbit serum linear peptides [2] | Rabbit serum looped peptides [2] | Binding of Control Serum Blood-Bank to Looped peptides of the protein M of SARS-CoV Urbani [1] | Binding of Control serum Blood-bank to linear peptides of the protein M of SARS-CoV Urbani [1] | Binding of Control serum LUMC to linear peptides of the protein M of SARS-CoV Urbani [1] | Binding of Control serum LUMC to looped peptides of the protein M of SARS-CoV Urbani [1]
1 | ISTPKLKEDYQIGGY | 0.7 | 0.7 | 1.0 | 0.5 | 0.1 | 0.4 |  |  |  |  |  | 
2 | AYCCNIVNVSLVKPT | 0.9 | 0.9 | 0.9 | 0.8 | 0.3 | 0.2 |  |  |  |  |  | 
3 | ELYHYQECVRGTTVL | 0.7 | 0.7 | 0.6 | 0.7 |  |  | 0.7 | 0.7 |  |  |  | 
4 | LSYYKLGASQRVGTD |  |  |  |  |  |  | 0.2 | 0.3 | 0.7 | 0.8 | 0.8 | 0.7
5 | KLVVILRIGTQVLKT | 0.7 | 0.8 | 0.4 | 0.6 | 0.5 | 0.5 |  |  |  |  |  | 
6 | ANPAMDPIYDEPTTT | 0.4 | 0.4 | 0.3 | 0.4 | 0.1 | 0.4 |  |  |  |  |  | 
7 | FVCWHTHNYDYCIPY | 0.5 | 0.6 | 0.7 | 0.6 | 0.1 | 0.7 |  |  |  |  |  | 
